Measurements from paper PMC7593722, “UPLC-MS/MS Method for the Simultaneous Quantification of Eight Compounds in Rat Plasma and Its Application to a Pharmacokinetic Study after Oral Administration of Veratrum (Veratrum nigrum L.) Extract” (BioMed Research International, 2020).

Test: in vivo
Conditions: for Detection in rat plasma after dosing: no complete pharmacokinetic curve; for Tmax: T max
Experimental: 0.1% formic acid in water (A) and acetonitrile (B) were used as mobile phases with the following gradient elution method: 0-2 min, 15%-25% B; 2-4 min, 25%-50% B; 4-6 min, 50%-90% B; and 6-7 min, 90%-95% B. The separation was performed on a Waters ACQUITY UPLC® CSHTM Phenyl-Hexyl (2.1 × 100 mm, 1.7 μm) column, and the temperature was maintained at 20°C. The flow rate and injection volume were 0.3 mL/min and 5 μL, respectively.
100 μL plasma sample was incorporated with 20 μL methanol and 20 μL of IS (20 ng/mL), and vortexed for 30 seconds. 1 mL ethyl acetate was then added to the sample and vortex-mixed for 3 min. […] The obtained residue was reconstituted in 100 μL methanol and centrifugation at 12000 × g for 10 min. 5 μL of the supernatant was injected for UPLC-MS/MS measurement.
Six male Sprague-Dawley rats (body weight, 220 ± 10 g) were used for this experiment. […] 0.5% CMC-Na aqueous solution was used to dissolve the Veratrum nigrum L. extract to a concentration of 0.2 g/mL suspension. […] After centrifugation at 4000 × g for 10 min at 4°C, the collected plasma was transferred into clean tubes and frozen at -80°C until next analysis. Pharmacokinetic parameters were calculated using “Drug and Statistics 3.0” (DAS 3.0) (Medical College of Wannan, China). The animal protocol was approved by the Animal Ethics Committee of Tianjin University of Traditional Chinese Medicine (TCM-LAEC20190060).
Some important pharmacokinetic parameters were calculated in this study including Cmax, the maximum plasma concentration and time to reach Cmax of each compound (Tmax). The T1/2 was the elimination half-life and it reflects the elimination rate of the drug in the body. The area under the plasma concentration-time curve AUC(0 − t) was calculated using the trapezoidal rule and extrapolated to infinity for AUC(0 − ∞). The mean residence time (MRT) of these ingredients was also investigated.

[1] = oral Veratrum nigrum L. extract 2 g/kg
[2] = male, Sprague-Dawley, rat, in vivo, po, 2 g/kg
[3] = male, Sprague-Dawley, rat, in vivo, po, 2 g/kg, male Sprague-Dawley rats, oral Veratrum nigrum L. extract 2 g/kg, plasma, n = 6, mean ± SD

| SMILES | Detection in rat plasma after dosing [1] | T max (male Sprague-Dawley rats, oral Veratrum nigrum L. extract 2 g/kg, plasma, n = 6, mean ± SD) [h] | AUC(0-inf) [2] [µg·h/mL] | AUC(0-t) [2] [µg·h/mL] | Cmax [2] [µg/mL] | MRT [2] [h] | MRT inf [2] [h] | half-life [2] [h] | Tmax [3] [h] | T max [2] [h] | Tmax [2] [h] |
| --- | --- | --- | --- | --- | --- | --- | --- | --- | --- | --- | --- |
| O=c1cc(-c2ccc(O)cc2)oc2cc(O)cc(O)c12 [Apigenin, apigenin] | only detected at the first few plasma sampling points | – | – | – | – | – | – | – | – | – | – |
| CC1=C2C[C@H]3[C@@H](CC=C4C[C@@H](O)CC[C@@]43C)[C@@H]2CC[C@]12O[C@@H]1C[C@H](C)CN[C@H]1[C@H]2C [Cyclopamine, cyclopamine] | only detected at the first few plasma sampling points | – | – | – | – | – | – | – | – | – | – |
| CC1=C2C(=O)[C@H]3[C@@H](CC=C4C[C@@H](O)CC[C@@]43C)[C@@H]2CC[C@]12O[C@@H]1C[C@H](C)CN[C@H]1[C@H]2C [Jervine, jervine] | – | 32.00 ± 6.20 | 22.7 ± 9.43 | 22.6 ± 9.39 | 0.515 ± 0.242 | 38.8 ± 5.58 | 39.1 ± 5.53 | 13.6 ± 1.36 | > 32 | – | – |
| OC[C@H]1O[C@@H](Oc2cc(O)cc(/C=C/c3ccc(O)cc3)c2)[C@H](O)[C@@H](O)[C@@H]1O [Polydatin, polydatin] | – | – | 0.0712 ± 0.0139 | 0.0604 ± 0.0181 | 0.0271 ± 0.024 | 13.2 ± 2.98 | 16.5 ± 13.7 | 14.4 ± 10.6 | 0.26 ± 0.29 | – | – |
| O=c1c(O)c(-c2ccc(O)c(O)c2)oc2cc(O)cc(O)c12 [Quercetin, quercetin] | only detected at the first few plasma sampling points | – | – | – | – | – | – | – | – | – | – |
| Oc1ccc(/C=C/c2cc(O)cc(O)c2)cc1 [Resveratrol, resveratrol] | – | – | 0.101 ± 0.0515 | 0.0897 ± 0.0493 | 0.045 ± 0.0395 | 13.2 ± 7.77 | 19 ± 15.5 | 2.24 ± 1.11 | 0.18 ± 0.17 | – | – |
| Cc1c([C@H](C)[C@@H]2NC[C@@H](C)C[C@H]2O)ccc2c1C[C@H]1[C@H]2CC=C2C[C@@H](O)CC[C@@]21C [Veratramine, veratramine] | – | – | 8 ± 2.33 | 7.98 ± 2.33 | 0.193 ± 0.0765 | 38.8 ± 5.83 | 39 ± 5.91 | 14.2 ± 6.51 | – | 34.08 ± 23.14 | > 32 |
| Cc1c([C@H](C)[C@@H]2NC[C@@H](C)C[C@H]2O)ccc2c1C[C@H]1[C@H]2CC=C2C[C@@H](O[C@@H]3O[C@H](CO)[C@@H](O)[C@H](O)[C@H]3O)CC[C@@]21C [Veratrosine, veratrosine] | – | – | 0.421 ± 0.199 | 0.411 ± 0.183 | 0.237 ± 0.155 | 10.5 ± 6.9 | 11.3 ± 7.68 | 11.5 ± 7.04 | 0.08 | – | – |
